Measurements as given in patent publication US8129417B2, “Substituted octahydrocyclopenta[C]pyrrol-4-amines as calcium channel blockers” (Abbott Laboratories, priority 2008, dated 2012).
pIC50: −log10 of the molar value.

The compounds below were run against human Cav2.2 (Homo sapiens, UniProt Q00975) (assay: Assessment of calcium channel activity using FLIPR (Ca2+ influx in IMR32 cells)). Settings: 60 minute pre-incubation with compound, 2 μM nifedipine, depolarized with 80 mM KCl.
Chain of human Cav2.2 (Q00975 whole entry): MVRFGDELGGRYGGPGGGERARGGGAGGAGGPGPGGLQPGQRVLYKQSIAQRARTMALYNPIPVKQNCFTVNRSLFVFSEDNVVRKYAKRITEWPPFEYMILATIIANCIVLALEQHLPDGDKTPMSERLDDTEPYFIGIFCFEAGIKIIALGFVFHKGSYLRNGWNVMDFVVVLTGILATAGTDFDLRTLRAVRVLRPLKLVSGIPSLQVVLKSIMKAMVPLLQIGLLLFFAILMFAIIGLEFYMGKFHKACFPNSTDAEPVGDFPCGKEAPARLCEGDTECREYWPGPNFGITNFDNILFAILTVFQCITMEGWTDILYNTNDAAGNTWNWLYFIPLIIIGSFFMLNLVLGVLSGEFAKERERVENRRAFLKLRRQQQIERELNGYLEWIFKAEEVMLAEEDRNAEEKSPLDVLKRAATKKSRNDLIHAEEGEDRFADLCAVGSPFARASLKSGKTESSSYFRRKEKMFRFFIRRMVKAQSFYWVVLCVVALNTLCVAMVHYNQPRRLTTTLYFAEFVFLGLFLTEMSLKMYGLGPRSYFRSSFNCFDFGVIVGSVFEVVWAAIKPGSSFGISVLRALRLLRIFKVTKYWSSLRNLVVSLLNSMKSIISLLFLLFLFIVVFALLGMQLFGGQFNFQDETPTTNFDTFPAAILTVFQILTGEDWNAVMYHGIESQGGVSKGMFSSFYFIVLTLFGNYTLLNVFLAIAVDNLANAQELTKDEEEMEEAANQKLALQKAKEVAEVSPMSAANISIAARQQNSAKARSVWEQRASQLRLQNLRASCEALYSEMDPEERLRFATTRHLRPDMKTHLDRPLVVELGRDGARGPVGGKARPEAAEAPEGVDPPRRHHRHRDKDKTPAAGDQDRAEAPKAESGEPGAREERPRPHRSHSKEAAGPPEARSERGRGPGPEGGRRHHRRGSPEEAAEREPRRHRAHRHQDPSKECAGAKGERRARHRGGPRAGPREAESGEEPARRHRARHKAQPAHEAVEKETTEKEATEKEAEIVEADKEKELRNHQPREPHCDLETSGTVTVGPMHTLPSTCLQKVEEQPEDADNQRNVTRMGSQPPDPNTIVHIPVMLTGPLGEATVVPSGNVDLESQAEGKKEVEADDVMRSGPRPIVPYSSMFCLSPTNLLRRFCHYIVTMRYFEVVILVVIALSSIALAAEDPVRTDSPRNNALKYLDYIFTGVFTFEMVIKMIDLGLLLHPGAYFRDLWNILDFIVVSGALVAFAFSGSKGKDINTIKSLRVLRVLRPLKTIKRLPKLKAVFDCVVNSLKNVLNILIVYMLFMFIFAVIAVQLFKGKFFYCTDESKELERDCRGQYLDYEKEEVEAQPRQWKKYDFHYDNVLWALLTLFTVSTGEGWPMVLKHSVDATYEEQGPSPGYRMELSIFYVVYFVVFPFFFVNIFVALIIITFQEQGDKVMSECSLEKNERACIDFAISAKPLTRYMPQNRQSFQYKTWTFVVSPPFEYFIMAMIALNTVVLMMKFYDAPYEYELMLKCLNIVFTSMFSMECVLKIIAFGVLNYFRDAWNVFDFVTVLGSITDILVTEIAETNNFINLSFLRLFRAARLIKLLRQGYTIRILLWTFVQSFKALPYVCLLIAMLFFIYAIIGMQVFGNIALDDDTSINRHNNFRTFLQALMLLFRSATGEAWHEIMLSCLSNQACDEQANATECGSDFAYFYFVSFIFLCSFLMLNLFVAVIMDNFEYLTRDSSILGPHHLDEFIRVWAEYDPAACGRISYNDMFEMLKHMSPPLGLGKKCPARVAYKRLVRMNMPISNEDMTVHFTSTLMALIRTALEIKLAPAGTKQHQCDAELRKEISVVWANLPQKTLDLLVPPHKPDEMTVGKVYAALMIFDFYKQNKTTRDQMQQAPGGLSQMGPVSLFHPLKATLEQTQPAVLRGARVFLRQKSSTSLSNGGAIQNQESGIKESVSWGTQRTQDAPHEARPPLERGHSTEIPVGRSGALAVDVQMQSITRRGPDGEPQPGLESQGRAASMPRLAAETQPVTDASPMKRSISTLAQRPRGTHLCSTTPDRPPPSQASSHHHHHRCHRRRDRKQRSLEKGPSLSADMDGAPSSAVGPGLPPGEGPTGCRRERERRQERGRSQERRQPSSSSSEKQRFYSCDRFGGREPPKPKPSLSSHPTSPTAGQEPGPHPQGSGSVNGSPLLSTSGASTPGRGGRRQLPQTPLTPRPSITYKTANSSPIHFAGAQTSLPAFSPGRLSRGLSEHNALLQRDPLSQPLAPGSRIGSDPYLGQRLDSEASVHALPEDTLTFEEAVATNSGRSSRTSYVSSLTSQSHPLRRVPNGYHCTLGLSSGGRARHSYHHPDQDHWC
Chain of human Cav2.2 (P54289 25-946 partner limits assumed): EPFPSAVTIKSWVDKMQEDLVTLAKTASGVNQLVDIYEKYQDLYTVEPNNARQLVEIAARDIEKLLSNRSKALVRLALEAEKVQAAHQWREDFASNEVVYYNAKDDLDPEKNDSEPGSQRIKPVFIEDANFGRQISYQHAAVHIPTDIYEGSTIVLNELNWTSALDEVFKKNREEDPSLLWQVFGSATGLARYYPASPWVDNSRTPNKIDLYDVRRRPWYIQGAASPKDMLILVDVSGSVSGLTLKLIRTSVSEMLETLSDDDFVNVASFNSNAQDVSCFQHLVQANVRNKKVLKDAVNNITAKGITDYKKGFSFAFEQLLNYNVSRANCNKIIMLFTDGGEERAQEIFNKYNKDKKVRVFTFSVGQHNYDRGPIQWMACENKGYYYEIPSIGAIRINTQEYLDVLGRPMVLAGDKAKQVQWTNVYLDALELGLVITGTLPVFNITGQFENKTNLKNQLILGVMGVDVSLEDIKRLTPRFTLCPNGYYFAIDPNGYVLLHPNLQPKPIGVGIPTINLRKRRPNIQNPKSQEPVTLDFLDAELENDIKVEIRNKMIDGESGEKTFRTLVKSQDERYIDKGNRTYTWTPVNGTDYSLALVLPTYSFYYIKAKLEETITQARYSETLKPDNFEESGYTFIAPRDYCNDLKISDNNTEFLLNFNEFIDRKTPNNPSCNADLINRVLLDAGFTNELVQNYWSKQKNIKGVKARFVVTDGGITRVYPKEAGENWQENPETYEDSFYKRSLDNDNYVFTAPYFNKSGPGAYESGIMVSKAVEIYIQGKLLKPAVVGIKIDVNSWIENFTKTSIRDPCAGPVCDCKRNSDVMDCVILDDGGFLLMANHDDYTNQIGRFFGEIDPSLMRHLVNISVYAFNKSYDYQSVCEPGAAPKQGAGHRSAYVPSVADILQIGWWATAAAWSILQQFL
Chain of human Cav2.2 (P54289 947-1103 partner limits assumed): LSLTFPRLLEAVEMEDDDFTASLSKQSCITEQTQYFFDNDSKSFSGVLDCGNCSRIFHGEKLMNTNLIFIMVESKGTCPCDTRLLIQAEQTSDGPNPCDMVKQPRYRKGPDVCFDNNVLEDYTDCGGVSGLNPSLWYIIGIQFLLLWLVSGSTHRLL
Chain of human Cav2.2 (P54284 whole entry partner): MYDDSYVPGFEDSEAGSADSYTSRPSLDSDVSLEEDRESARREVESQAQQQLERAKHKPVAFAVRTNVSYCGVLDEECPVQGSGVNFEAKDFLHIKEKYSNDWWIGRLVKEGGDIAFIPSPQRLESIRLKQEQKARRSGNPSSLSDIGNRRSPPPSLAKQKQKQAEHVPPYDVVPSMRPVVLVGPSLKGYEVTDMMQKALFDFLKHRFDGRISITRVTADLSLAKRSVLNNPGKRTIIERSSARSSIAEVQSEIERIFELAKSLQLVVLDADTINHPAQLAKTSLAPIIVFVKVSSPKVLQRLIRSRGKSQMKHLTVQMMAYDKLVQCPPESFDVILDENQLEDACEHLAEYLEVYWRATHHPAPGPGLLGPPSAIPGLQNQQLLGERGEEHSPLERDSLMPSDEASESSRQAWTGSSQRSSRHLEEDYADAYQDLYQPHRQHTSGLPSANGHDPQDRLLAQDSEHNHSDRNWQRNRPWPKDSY
Type: cell-based
Outline: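 IMR32 neuroblastoma cells seeded at 1-1.2×10^5 cells/well and grown 48 h at 37 °C before FLIPR Ca2+ influx read. Percent inhibition at each concentration vs no-inhibitor activity; IC50 by non-linear sigmoidal dose-response fit.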
Work on `CN(C(=O)OC(C)(C)C)C(Cc1ccccc1)C(=O)NC1CCC2CN(S(=O)(=O)c3ccc(C(F)(F)F)cc3)CC21` [Example 258, N-(tert-butoxycarbonyl)-N-methyl-N-((3aR,4S,6aS)-2-{[4-(trifluoromethyl)phenyl]sulfonyl}octahydrocyclopenta[c]pyrrol-4-yl)-1-phenylalaninamide] yielded a pIC50 of 6.07. `CCC[C@@H](C(=O)N[C@H]1CC[C@@H]2CN(S(=O)(=O)c3ccc(C(F)(F)F)cc3)C[C@@H]21)N(C)C(=O)OC(C)(C)C` [Example 259, tert-butyl methyl((S)-1-oxo-1-((3aR,4S,6aS)-2-(4-(trifluoromethyl)phenylsulfonyl)octahydrocyclopenta[c]pyrrol-4-ylamino)pentan-2-yl)carbamate] was tested, and the pIC50 was 5.94. `CC(C)(C)C[C@H](NC(=O)OC(C)(C)C)C(=O)N[C@H]1CC[C@@H]2CN(c3ccc(C(F)(F)F)cn3)C[C@@H]21` [Example 262, tert-butyl(S)-4,4-dimethyl-1-oxo-1-((3aR,4S,6aS)-2-(5-(trifluoromethyl)pyridin-2-yl)octahydrocyclopenta[c]pyrrol-4-ylamino)pentan-2-ylcarbamate] was tested, and the pIC50 was 5.74. For `CC(C)(C)C[C@H](NC(=O)OC(C)(C)C)C(=O)N[C@H]1CC[C@@H]2CN(c3cccc(C(F)(F)F)n3)C[C@@H]21` [Example 264, tert-butyl(S)-4,4-dimethyl-1-oxo-1-((3aR,4S,6aS)-2-(6-(trifluoromethyl)pyridin-2-yl)octahydrocyclopenta[c]pyrrol-4-ylamino)pentan-2-ylcarbamate], the pIC50 was 6.55. Work on `CC(C)(C)C[C@H](NC(=O)OC(C)(C)C)C(=O)N[C@H]1CC[C@@H]2CN(c3cnc(S(C)(=O)=O)nc3)C[C@@H]21` [Example 265, tert-butyl(S)-4,4-dimethyl-1-((3aR,4S,6aS)-2-(2-(methylsulfonyl)pyrimidin-5-yl)octahydrocyclopenta[c]pyrrol-4-ylamino)-1-oxopentan-2-ylcarbamate] yielded a pIC50 of 5.58. Work on `CC(C)(C)OC(=O)N1CCC[C@H]1C(=O)N[C@@H]1CC[C@H]2CN(S(=O)(=O)c3cccc(C(F)(F)F)c3)C[C@H]21` [Example 266, (S)-tert-butyl 2-((3aS,4R,6aR)-2-(3-(trifluoromethyl)phenylsulfonyl)octahydrocyclopenta[c]pyrrol-4-ylcarbamoyl)pyrrolidine-1-carboxylate] yielded a pIC50 of 6.06. `CC(C)(C)OC(=O)N1CCCC[C@H]1C(=O)N[C@@H]1CC[C@H]2CN(S(=O)(=O)c3cccc(C(F)(F)F)c3)C[C@H]21` [Example 268, tert-butyl(2S)-2-{[((3aS,4R,6aR)-2-{[3-(trifluoromethyl)phenyl]sulfonyl}octahydrocyclopenta[c]pyrrol-4-yl)amino]carbonyl}piperidine-1-carboxylate] was tested, and the pIC50 was 6.14. `CN(C(=O)OC(C)(C)C)C(Cc1ccccc1)C(=O)NC1CCC2CN(S(=O)(=O)c3cccc(C(F)(F)F)c3)CC21` [Example 270, N-(tert-butoxycarbonyl)-N-methyl-N-((3aR,4S,6aS)-2-{[3-(trifluoromethyl)phenyl]sulfonyl}octahydrocyclopenta[c]pyrrol-4-yl)-L-phenylalaninamide] was tested, and the pIC50 was 6.11. `CC(C)(C)OC(=O)N1CCC[C@H]1C(=O)N[C@H]1CC[C@@H]2CN(S(=O)(=O)c3cccc(C(F)(F)F)c3)C[C@@H]21` [Example 271, (S)-tert-butyl 2-((3aR,4S,6aS)-2-(3-(trifluoromethyl)phenylsulfonyl)octahydrocyclopenta[c]pyrrol-4-ylcarbamoyl)pyrrolidine-1-carboxylate] was tested, and the pIC50 was 5.47. For `CC(C)[C@@H](CC(=O)N[C@H]1CC[C@@H]2CN(S(=O)(=O)c3cccc(C(F)(F)F)c3)C[C@@H]21)NC(=O)OC(C)(C)C` [Example 272, tert-butyl(1R)-1-isopropyl-3-oxo-[((3aR,4S,6aS)-2-{[3-(trifluoromethyl)phenyl]sulfonyl}octahydrocyclopenta[c]pyrrol-4-yl)amino]propylcarbamate], the pIC50 was 5.29.
